Reference: patent publication US20220002314A1 (priority 2018, published 2022)
Where two headings read alike, the source gives them in different places.

Assays:
[1] = target: Human α2δ-1 subunit of Cav2.2 calcium channel (Homo sapiens, UniProt P54289); test: biochemical; type: binding
Human μ-opioid receptor = Human μ-opioid receptor (Homo sapiens, UniProt P35372); test: biochemical; type: binding
Human μ-opioid receptor, sequence (P35372 whole entry): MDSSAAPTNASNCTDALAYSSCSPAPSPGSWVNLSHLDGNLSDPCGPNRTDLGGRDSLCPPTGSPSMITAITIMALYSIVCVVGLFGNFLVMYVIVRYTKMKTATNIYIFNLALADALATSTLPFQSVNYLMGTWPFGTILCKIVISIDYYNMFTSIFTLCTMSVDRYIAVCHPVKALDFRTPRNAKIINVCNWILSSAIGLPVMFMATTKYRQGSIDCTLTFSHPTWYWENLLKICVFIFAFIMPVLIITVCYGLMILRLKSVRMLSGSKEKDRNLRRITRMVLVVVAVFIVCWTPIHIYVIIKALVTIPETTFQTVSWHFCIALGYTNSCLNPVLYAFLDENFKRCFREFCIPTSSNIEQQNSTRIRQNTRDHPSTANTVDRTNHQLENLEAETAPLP

Human α2δ-1 subunit of Cav2.2 calcium channel, sequence (P54289 25-1103): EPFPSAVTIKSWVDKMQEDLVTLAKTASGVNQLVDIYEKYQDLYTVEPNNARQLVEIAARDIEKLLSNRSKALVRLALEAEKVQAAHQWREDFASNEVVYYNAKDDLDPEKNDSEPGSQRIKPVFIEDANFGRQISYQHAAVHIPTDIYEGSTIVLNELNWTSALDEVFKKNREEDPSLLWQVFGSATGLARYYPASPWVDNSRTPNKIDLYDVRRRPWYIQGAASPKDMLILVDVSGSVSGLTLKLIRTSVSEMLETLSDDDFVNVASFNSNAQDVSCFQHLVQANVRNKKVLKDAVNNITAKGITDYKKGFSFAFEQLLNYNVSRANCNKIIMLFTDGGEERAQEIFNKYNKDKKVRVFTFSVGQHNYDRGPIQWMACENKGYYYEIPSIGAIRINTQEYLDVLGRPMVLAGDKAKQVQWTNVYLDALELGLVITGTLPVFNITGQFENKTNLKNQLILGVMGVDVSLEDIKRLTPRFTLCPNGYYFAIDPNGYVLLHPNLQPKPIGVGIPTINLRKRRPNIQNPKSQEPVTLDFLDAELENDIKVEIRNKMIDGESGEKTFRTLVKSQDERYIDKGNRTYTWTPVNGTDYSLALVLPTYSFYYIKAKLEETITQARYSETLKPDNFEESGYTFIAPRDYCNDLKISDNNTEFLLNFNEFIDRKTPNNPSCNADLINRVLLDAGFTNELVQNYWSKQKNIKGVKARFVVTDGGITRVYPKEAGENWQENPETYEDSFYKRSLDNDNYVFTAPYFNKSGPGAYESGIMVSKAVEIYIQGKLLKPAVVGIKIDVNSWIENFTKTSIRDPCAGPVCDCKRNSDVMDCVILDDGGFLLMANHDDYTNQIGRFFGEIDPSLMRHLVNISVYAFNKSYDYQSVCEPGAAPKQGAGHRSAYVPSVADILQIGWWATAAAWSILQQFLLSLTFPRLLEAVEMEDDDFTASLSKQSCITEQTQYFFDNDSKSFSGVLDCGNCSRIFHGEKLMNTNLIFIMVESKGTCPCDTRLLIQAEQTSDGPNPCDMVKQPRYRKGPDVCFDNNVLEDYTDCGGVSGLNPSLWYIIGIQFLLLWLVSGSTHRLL

SMILES | Ki [1] [nM] | Ki (Human μ-opioid receptor) [nM] | Ki ([1]; read-out: α2δ-1 binding) [nM] | Ki (Human μ-opioid receptor; read-out: μ-binding) [nM] | Ki (Human μ-opioid receptor; binding to μ-opioid receptor expressed as Ki, + also Ki>500 nM or inhibition between 1% and 50%, read-out: μ-binding) [nM]
CCC[C@@H](c1nc2ccc(Br)cc2c(=O)n1CC)N1CCN[C@@H](CO)C1 [Example 61, 6-bromo-3-ethyl-2-((S)-1-((R)-3-(hydroxymethyl)piperazin-1-yl)butyl)quinazolin-4(3H)-one] | > 5000 | > 500 |  |  | 
CCC[C@H](c1nc2ccc(Cl)cc2c(=O)n1CC)N1CCN[C@@H](C)C1 [Example 103, 6-Chloro-3-ethyl-2-((R)-1-((S)-3-methylpiperazin-1-yl)butyl)quinazolin-4(3H)-one] | < 500 | < 100 |  |  | 
CCC[C@H](c1nc2c(F)cc(Cl)cc2c(=O)n1CC)N1CCNCC1 [Example 199, (R)-6-chloro-3-ethyl-8-fluoro-2-(1-(piperazin-1-yl)butyl)quinazolin-4(3H)-one] | < 500 | 100 to 500 |  |  | 
CCCC(c1nc2ccc(Br)c(C)c2c(=O)n1CC)N1CCNCC1 (stereo not shown) [Example 84, 6-bromo-3-ethyl-5-methyl-2-(1-(piperazin-1-yl)butyl)quinazolin-4(3H)-one] | 500 to 5000 | 100 to 500 |  |  | 
CCCC(c1nc2cc(Br)ccc2c(=O)n1CC)N1CCNCC1 (stereo not shown) [Example 81, 7-bromo-3-ethyl-2-(1-(piperazin-1-yl)butyl)quinazolin-4(3H)-one] | < 500 | > 500 |  |  | 
CCC[C@H](c1nc2c(F)cc(F)cc2c(=O)n1CC)N1CCN[C@@H](C)C1 [Example 201, 3-ethyl-6,8-difluoro-2-((R)-1-((S)-3-methylpiperazin-1-yl)butyl)quinazolin-4(3H)-one] | < 500 | < 100 |  |  | 
CCCC(c1nc2cc(N(CC)C(=O)OC(C)(C)C)ccc2c(=O)n1CC)N1C[C@@H](C)N[C@@H](C)C1 (stereo partly drawn) [Example 26, tert-butyl (2-(1-((3S,5R)-3,5-dimethylpiperazin-1-yl)butyl)-3-ethyl-4-oxo-3,4-dihydroquinazolin-7-yl)(ethyl)carbamate] |  |  | 500 to 5000 | > 500 | 
CCC[C@@H](c1nc2cc(F)c(Br)cc2c(=O)n1CC)N1CCN[C@H](C)C1 [Example 209, 6-bromo-3-ethyl-7-fluoro-2-((S)-1-((R)-3-methylpiperazin-1-yl)butyl)quinazolin-4(3H)-one] | < 500 | 100 to 500 |  |  | 
CCCC(c1nc2ccc(N3CCC(N(C)C)CC3)cc2c(=O)n1CC)N1C[C@@H](C)N[C@@H](C)C1 (stereo partly drawn) [Example 139, 6-(4-(dimethylamino)piperidin-1-yl)-2-(1-((3S,5R)-3,5-dimethylpiperazin-1-yl)butyl)-3-ethylquinazolin-4(3H)-one] | < 500 | > 500 |  |  | 
CCCC(c1nc2ccc(Br)cc2c(=O)n1CCC(=O)OCC)N1C[C@@H](C)N[C@@H](C)C1 (stereo partly drawn) [Example 122, ethyl 3-(6-bromo-2-(1-((3S,5R)-3,5-dimethylpiperazin-1-yl)butyl)-4-oxoquinazolin-3(4H)-yl)propanoate] |  |  | 500 to 5000 | > 500 | 
CCC[C@H](c1nc2ccc(Br)cc2c(=O)n1CC)N1CCN[C@@H](CC)C1 [Example 212, 6-bromo-3-ethyl-2-((R)-1-((S)-3-ethylpiperazin-1-yl)butyl)quinazolin-4(3H)-one] | < 500 | > 500 |  |  | 
CCC[C@H](c1nc2cc(F)c(F)cc2c(=O)n1CC)N1CCN[C@@H](C)C1 [Example 216, 3-ethyl-6,7-difluoro-2-((R)-1-((S)-3-methylpiperazin-1-yl)butyl)quinazolin-4(3H)-one] | < 500 | 100 to 500 |  |  | 
CCC[C@H](c1nc2ccc(Br)cc2c(=O)n1CC)N1CCN[C@H](CF)C1 [Example 55, 6-Bromo-3-ethyl-2-((R)-1-((S)-3-(fluoromethyl)piperazin-1-yl)butyl)quinazolin-4(3H)-one] | < 500 | > 500 |  |  | 
CCCC(c1nc2cccnc2c(=O)n1CC)N1C[C@@H](C)N[C@@H](C)C1 (stereo partly drawn) [Example 27, 2-(1-((3S,5R)-3,5-dimethylpiperazin-1-yl)butyl)-3-ethylpyrido[3,2-d]pyrimidin-4(3H)-one] | < 500 | > 500 |  |  | 
CCC[C@@H](c1nc2c(F)cc(Br)cc2c(=O)n1CC)N1CCN[C@H](C)C1 [Example 48, 6-bromo-3-ethyl-8-fluoro-2-((S)-1-((R)-3-methylpiperazin-1-yl)butyl)quinazolin-4(3H)-one] | > 5000 | > 500 |  |  | 
CCCC(c1nc2ccc(Br)cc2c(=O)n1CC(=O)O)N1C[C@@H](C)N[C@@H](C)C1 (stereo partly drawn) [Example 126, 2-(6-bromo-2-(1-((3S,5R)-3,5-dimethylpiperazin-1-yl)butyl)-4-oxoquinazolin-3(4H)-yl)acetic acid] |  |  | > 5000 | > 500 | 
CCC[C@H](c1nc2c(F)cc(OC)cc2c(=O)n1CC)N1CCN[C@@H](C)C1 [Example 46, 3-ethyl-8-fluoro-6-methoxy-2-((R)-1-((S)-3-methylpiperazin-1-yl)butyl)quinazolin-4(3H)-one] | < 500 | 100 to 500 |  |  | 
CCCC(c1nc2ccc(Br)c(F)c2c(=O)n1CC)N1CCNCC1 (stereo not shown) [Example 88, 6-bromo-3-ethyl-5-fluoro-2-(1-(piperazin-1-yl)butyl)quinazolin-4(3H)-one] | < 500 | > 500 |  |  | 

SMILES | Ki [1] [nM] | Ki (Human μ-opioid receptor) [nM] | Ki ([1]; read-out: α2δ-1 binding) [nM] | Ki (Human μ-opioid receptor; read-out: μ-binding) [nM] | Ki (Human μ-opioid receptor; binding to μ-opioid receptor expressed as Ki, + also Ki>500 nM or inhibition between 1% and 50%, read-out: μ-binding) [nM]
CCCC(c1nc2ncc(Br)cc2c(=O)n1CC)N1C[C@@H](C)N[C@@H](C)C1 (stereo partly drawn) [Example 28, 6-bromo-2-(1-((3S,5R)-3,5-dimethylpiperazin-1-yl)butyl)-3-ethylpyrido[2,3-d]pyrimidin-4(3H)-one] | < 500 | > 500 |  |  | 
CCC[C@@H](c1nc2ccccc2c(=O)n1CCOC)N1C[C@@H](C)N[C@@H](C)C1 [Example 124, 2-((S)-1-((3S,5R)-3,5-dimethylpiperazin-1-yl)butyl)-3-(2-methoxyethyl)quinazolin-4(3H)-one] | 500 to 5000 | > 500 |  |  | 
CCC[C@@H](c1nc2ccc(N3C[C@H](C)OC4(CCN(CCc5ccccc5)CC4)C3)cc2c(=O)n1CC)N1C[C@@H](C)N[C@@H](C)C1 [Example 155, 2-((S)-1-((3S,5R)-3,5-dimethylpiperazin-1-yl)butyl)-3-ethyl-6-((S)-2-methyl-9-phenethyl-1-oxa-4,9-diazaspiro[5.5]undecan-4-yl)quinazolin-4(3H)-one] | < 500 | > 500 |  |  | 
CCCC(c1nc2ccc(N(C)C3CCN(C)CC3)cc2c(=O)n1CC)N1C[C@@H](C)N[C@@H](C)C1 (stereo partly drawn) [Example 143, 2-(1-((3S,5R)-3,5-dimethylpiperazin-1-yl)butyl)-3-ethyl-6-(methyl(1-methylpiperidin-4-yl)amino)quinazolin-4(3H)-one] | < 500 |  |  |  | > 500
CCC[C@H](c1nc2ncc(Br)cc2c(=O)n1CCC)N1CCN[C@@H](C)C1 [Example 72, 6-Bromo-2-((R)-1-((S)-3-methylpiperazin-1-yl)butyl)-3-propylpyrido[2,3-d]pyrimidin-4(3H)-one] | < 500 | > 500 |  |  | 
CCC[C@H](c1nc2ncc(Br)cc2c(=O)n1CC)N1CCN[C@@H](C)C1 [Example 68, 6-Bromo-3-ethyl-2-((R)-1-((S)-3-methylpiperazin-1-yl)butyl)pyrido[2,3-d]pyrimidin-4(3H)-one] | < 500 | > 500 |  |  | 
CCC[C@H](c1nc2c(F)cc(Br)cc2c(=O)n1CC)N1CCN[C@H](C)C1 [Example 47, 6-Bromo-3-ethyl-8-fluoro-2-((R)-1-((R)-3-methylpiperazin-1-yl)butyl)quinazolin-4(3H)-one] | < 500 | > 500 |  |  | 
CCCC(c1nc2cc(Br)ccc2c(=O)n1C)N1C[C@@H](C)N[C@@H](C)C1 (stereo partly drawn) [Example 17, 7-bromo-2-(1-((3S,5R)-3,5-dimethylpiperazin-1-yl)butyl)-3-methylquinazolin-4(3H)-one] | < 500 | > 500 |  |  | 
CCC[C@H](c1nc2ccc(Br)cc2c(=O)n1CC)[C@H]1CCNCC1(F)F [Example 196, 6-bromo-2-((S)-1-((R)-3,3-difluoropiperidin-4-yl)butyl)-3-ethylquinazolin-4(3H)-one] | > 5000 | > 500 |  |  | 
CCCC(c1nc2ccccc2c(=O)n1C)N1CCNCC1 (stereo not shown) [Example 80, 3-methyl-2-(1-(piperazin-1-yl)butyl)quinazolin-4(3H)-one] |  |  | 500 to 5000 | > 500 | 
CCC[C@H](c1nc2cccnc2c(=O)n1CC)N1CCN[C@@H](C)C1 [Example 70, 3-Ethyl-2-((R)-1-((S)-3-methylpiperazin-1-yl)butyl)pyrido[3,2-d]pyrimidin-4(3H)-one] | < 500 | > 500 |  |  | 
CCC[C@H](c1nc2cc(F)c(Br)cc2c(=O)n1CC)N1CCN[C@H](C)C1 [Example 208, 6-bromo-3-ethyl-7-fluoro-2-((R)-1-((R)-3-methylpiperazin-1-yl)butyl)quinazolin-4(3H)-one] | < 500 | > 500 |  |  | 
CCC[C@H](c1nc2ccc(Cl)cc2c(=O)n1C)N1CCN[C@@H](C)C1 [Example 198, 6-chloro-3-methyl-2-((R)-1-((S)-3-methylpiperazin-1-yl)butyl)quinazolin-4(3H)-one] | < 500 | 100 to 500 |  |  | 
CCCC(c1nc2ccc(C#N)cc2c(=O)n1CC)N1C[C@@H](C)N[C@@H](C)C1 (stereo partly drawn) [Example 177, 2-(1-((3S,5R)-3,5-dimethylpiperazin-1-yl)butyl)-3-ethyl-4-oxo-3,4-dihydroquinazoline-6-carbonitrile] | < 500 | > 500 |  |  | 
COCCn1c(C(CC2CC2)N2C[C@@H](C)N[C@@H](C)C2)nc2ccccc2c1=O (stereo partly drawn) [Example 116, 2-(2-cyclopropyl-1-((3S,5R)-3,5-dimethylpiperazin-1-yl)ethyl)-3-(2-methoxyethyl)quinazolin-4(3H)-one] | 500 to 5000 |  |  | > 500 | 
CCCC(c1nc2cc(-c3ccncc3)ccc2c(=O)n1CC)N1C[C@@H](C)N[C@@H](C)C1 (stereo partly drawn) [Example 133, 2-(1-((3S,5R)-3,5-dimethylpiperazin-1-yl)butyl)-3-ethyl-7-(pyridin-4-yl)quinazolin-4(3H)-one] | < 500 | > 500 |  |  | 
CCC[C@@H](c1nc2ncc(Br)cc2c(=O)n1CC1CC1)N1CCN[C@@H](C)C1 [Example 74, 6-Bromo-3-(cyclopropylmethyl)-2-((S)-1-((S)-3-methylpiperazin-1-yl)butyl)pyrido[2,3-d]pyrimidin-4(3H)-one] | > 5000 | > 500 |  |  | 
